Data reported in US20240317758A1 (Halia Therapeutics, Inc., priority 2021, published 2024).

These compounds were tested against T1, full-length recombinant human NEK7 (Homo sapiens, UniProt Q8TDX7) (assay: NEK7 enzymatic assay). Details: recombinant human NEK7, casein substrate, radiolabelled ATP.
T1 construct: full-length recombinant human NEK7; GST (N); purchased SignalChem NO9-10G; host or cells: Sf9 insect cells (baculovirus)
Assay type: biochemical
Method: Casein substrate (from bovine milk, hydrolyzed and partially dephosphorylated mixture of α, β and κ caseins, obtained from Sigma Aldrich, catalogue #C4765, diluted in distilled water to a final concentration of 1 mg/mL) and full-length recombinant human NEK7 (expressed by baculovirus in Sf9 insect cells using a N-terminal GST tag, obtained from SignalChem, catalogue #NO9-10G, 0.1 μg/μL) were mixed in assay buffer (20 mM Hepes pH 7.5, 10 mM MgCl2, 1 mM EGTA, 0.02% Brij35, 0.02 mg/ml BSA, 0.1 mM Na3VO4, 2 mM DTT, 1% DMSO). Compounds of interest (serial 3-fold dilution in DMSO from 10 μM to 0.5 nM) or vehicle (1% DMSO) were dispensed into the kinase reaction mixture by Acoustic technology (Echo550; nanoliter range). After incubation at room temperature for 20 minutes, the kinase reaction was initiated by addition of [^33P]-ATP (specific activity 10 μCi/μl) and the mixture was incubated at room temperature for 2 hours. The reaction was then stopped by spotting the reaction mixture on strips of phosphocellulose P81 paper. Following washing, the radioactivity of the P81 paper was measured and kinase activity data were expressed as the percent remaining kinase activity in test samples compared to vehicle reactions. IC50 values and curve fits were obtained using Prism (GraphPad Software).
Casein substrate (from bovine milk, hydrolyzed and partially dephosphorylated mixture of α, β and κ caseins, obtained from Sigma Aldrich, catalogue #C4765, diluted in distilled water to a final concentration of 1 mg/mL, assay concentration 20 μM) and full-length recombinant human Nek7 (expressed by baculovirus in Sf9 insect cells using a N-terminal GST tag, obtained from SignalChem, catalogue #NO9-10G, 0.1 μg/μL, assay concentration 70 nM) were mixed in assay buffer (20 mM Hepes pH 7.5, 10 mM MgCl2, 1 mM EGTA, 0.02% Brij35, 0.02 mg/ml BSA, 0.1 mM […], 2 mM DTT, 1% DMSO). Compounds of interest (in DMSO, serial 3-fold dilution from 10 μM to 0.5 nM) or control (1% DMSO) were dispensed into the kinase reaction mixture by Acoustic technology (Echo550; nanoliter range). After incubation at room temperature for 20 minutes, the kinase reaction was initiated by addition of [^32P]-ATP (Specific activity 10 μCi/μl) and the mixture was incubated at room temperature for 2 hours. The reaction was then stopped by spotting the reaction mixture on strips of phosphocellulose P81 paper. Following washing, the radioactivity of the P81 paper was measured and kinase activity data were expressed as the percent remaining kinase activity in test samples compared to vehicle (dimethyl sulfoxide) reactions. IC50 values and curve fits were obtained using Prism (GraphPad Software).

T1 sequence (Q8TDX7 whole entry): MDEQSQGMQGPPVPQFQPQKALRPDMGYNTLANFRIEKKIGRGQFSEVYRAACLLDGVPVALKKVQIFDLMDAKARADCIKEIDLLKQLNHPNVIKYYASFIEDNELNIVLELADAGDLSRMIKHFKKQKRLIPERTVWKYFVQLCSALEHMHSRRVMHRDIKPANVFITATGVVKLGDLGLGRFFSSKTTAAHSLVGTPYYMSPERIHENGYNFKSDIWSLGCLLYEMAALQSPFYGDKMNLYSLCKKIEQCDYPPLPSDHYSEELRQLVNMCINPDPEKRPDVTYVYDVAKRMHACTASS

Compound	IC50
Nc1ncnc2c1c(-c1ccc(NC(=O)Nc3ccc(OC4CCN(C5COC5)CC4F)c(C(F)(F)F)c3)c(F)c1)cn2C1CC1 (single isomer, unassigned) [Example I-91, 1-(4-(4-amino-7-cyclopropyl-7H-pyrrolo[2,3-d]pyrimidin-5-yl)-2-fluorophenyl)-3-(4-((3-fluoro-1-(oxetan-3-yl)piperidin-4-yl)oxy)-3-(trifluoromethyl)phenyl)urea]	0.1 to 0.5 µM
CN1CC2CCC(C1)N2Cc1ccc(NC(=O)Nc2ccc(-c3cn(C4CC4)c4ncnc(N)c34)cc2F)cc1C(F)(F)F [Example I-4, 1-(4-(4-amino-7-cyclopropyl-7H-pyrrolo[2,3-d]pyrimidin-5-yl)-2-fluorophenyl)-3-(4-((3-methyl-3,8-diazabicyclo[3.2.1]octan-8-yl)methyl)-3-(trifluoromethyl)phenyl)urea]	0.1 to 0.5 µM
CN1CCN(Cc2ccc(NC(=O)Nc3ccc(-c4cn(CCO)c5ncnc(N)c45)cc3F)cc2C(F)(F)F)CC1 [Example I-71, 1-(4-(4-amino-7-(2-hydroxyethyl)-7H-pyrrolo[2,3-d]pyrimidin-5-yl)-2-fluorophenyl)-3-(4-((4-methylpiperazin-1-yl)methyl)-3-(trifluoromethyl)phenyl)urea]	< 0.1 µM
CN1CCC(Oc2ccc(NC(=O)Nc3ccc(-c4cn(C5CC5)c5ncnc(N)c45)cc3F)cc2C(F)(F)F)C(F)C1 (single isomer, unassigned) [Example I-89, 1-(4-(4-amino-7-cyclopropyl-7H-pyrrolo[2,3-d]pyrimidin-5-yl)-2-fluorophenyl)-3-(4-((3-fluoro-1-methylpiperidin-4-yl)oxy)-3-(trifluoromethyl)phenyl)urea]	0.1 to 0.5 µM
CC(C)n1cc(-c2ccc(NC(=O)Nc3ccc(CN4CCN(C)CC4)c(C(F)(F)F)c3)c(F)c2)c2c(N)ncnc21 [Example I-105, 1-(4-(4-amino-7-isopropyl-7H-pyrrolo[2,3-d]pyrimidin-5-yl)-2-fluorophenyl)-3-(4-((4-methylpiperazin-1-yl)methyl)-3-(trifluoromethyl)phenyl)urea]	< 0.1 µM
Cc1cc(NC(=O)Nc2ccc(-c3nn(C(C)C)c4ncnc(N)c34)cc2)ccc1N1CCOCC1 [Example I-22, 1-(4-(4-amino-1-isopropyl-1H-pyrazolo[3,4-d]pyrimidin-3-yl)phenyl)-3-(3-methyl-4-morpholinophenyl)urea]	0.1 to 0.5 µM
Nc1ncnc2c1c(-c1ccc(NC(=O)Nc3ccc(OC4CCN(C5COC5)CC4F)c(C(F)(F)F)c3)c(F)c1)cn2C1CC1 (single isomer, unassigned) [Example I-92, 1-(4-(4-amino-7-cyclopropyl-7H-pyrrolo[2,3-d]pyrimidin-5-yl)-2-fluorophenyl)-3-(4-((3-fluoro-1-(oxetan-3-yl)piperidin-4-yl)oxy)-3-(trifluoromethyl)phenyl)urea]	0.1 to 0.5 µM
CN1CCC(Cc2ccc(NC(=O)Nc3ccc(-c4cn(C5CC5)c5ncnc(N)c45)cc3F)cc2C(F)(F)F)CC1 [Example I-11, 1-(4-(4-amino-7-cyclopropyl-7H-pyrrolo[2,3-d]pyrimidin-5-yl)-2-fluorophenyl)-3-(4-((1-methylpiperidin-4-yl)methyl)-3-(trifluoromethyl)phenyl)urea]	> 2 µM
Cc1cc(NC(=O)Nc2ccc(-c3nn(C4COC4)c4ncnc(N)c34)cc2)ccc1N1CCOCC1 [Example I-23, 1-(4-(4-amino-1-(oxetan-3-yl)-1H-pyrazolo[3,4-d]pyrimidin-3-yl)phenyl)-3-(3-methyl-4-morpholinophenyl)urea]	> 2 µM
Nc1ncnc2c1c(-c1ccc(NC(=O)Nc3ccc(CN4CCOCC4)cc3F)c(F)c1)cn2C1CC1 [Example I-1, 1-(4-(4-amino-7-cyclopropyl-7H-pyrrolo[2,3-d]pyrimidin-5-yl)-2-fluorophenyl)-3-(2-fluoro-4-(morpholinomethyl)phenyl)urea]	> 2 µM
CN1CCN(Cc2ccc(NC(=O)Nc3ccc(-c4nn(CCCCCO)c5ncnc(N)c45)cc3F)cc2C(F)(F)F)CC1 [Example I-103, 1-(4-(4-amino-1-(5-hydroxypentyl)-1H-pyrazolo[3,4-d]pyrimidin-3-yl)-2-fluorophenyl)-3-(4-((4-methylpiperazin-1-yl)methyl)-3-(trifluoromethyl)phenyl)urea]	< 0.1 µM
CN1CCN(Cc2ccc(NC(=O)Nc3ccc(-c4cn(C5CC5)c5ncnc(N)c45)cn3)cc2C(F)(F)F)CC1 [Example I-14, 1-(5-(4-amino-7-cyclopropyl-7H-pyrrolo[2,3-d]pyrimidin-5-yl)pyridin-2-yl)-3-(4-((4-methylpiperazin-1-yl)methyl)-3-(trifluoromethyl)phenyl)urea]	< 0.1 µM

The next lines start with the values.

IC50	Compound
< 0.1 µM	CN(C)C1CCN(Cc2ccc(NC(=O)Nc3ccc(-c4cn(C5CC5)c5ncnc(N)c45)cc3F)cc2C(F)(F)F)CC1 [Example I-69]
> 2 µM	Nc1ncnc2c1c(-c1ccc(NC(=O)Nc3ccc(CN4CCC(F)(F)CC4)c(C(F)(F)F)c3)c(F)c1)cn2C1CC1 [Example I-85, 1-(4-(4-amino-7-cyclopropyl-7H-pyrrolo[2,3-d]pyrimidin-5-yl)-2-fluorophenyl)-3-(4-((4,4-difluoropiperidin-1-yl)methyl)-3-(trifluoromethyl)phenyl)urea]
< 0.1 µM	CN1CCCN(Cc2ccc(NC(=O)Nc3ccc(-c4cn(C5CC5)c5ncnc(N)c45)cc3F)cc2C(F)(F)F)CC1 [Example I-44, 1-(4-(4-amino-7-cyclopropyl-7H-pyrrolo[2,3-d]pyrimidin-5-yl)-2-fluorophenyl)-3-(4-((4-methyl-1,4-diazepan-1-yl)methyl)-3-(trifluoromethyl)phenyl)urea]
0.1 to 0.5 µM	CC1CN(C)CCN1Cc1ccc(NC(=O)Nc2ccc(-c3cn(C4CC4)c4ncnc(N)c34)cc2F)cc1C(F)(F)F (stereo not shown) [Example I-70, 1-(4-(4-amino-7-cyclopropyl-7H-pyrrolo[2,3-d]pyrimidin-5-yl)-2-fluorophenyl)-3-(4-((2,4-dimethylpiperazin-1-yl)methyl)-3-(trifluoromethyl)phenyl)urea]
0.1 to 0.5 µM	CCN1CCN(Cc2ccc(NC(=O)Nc3ccc(-c4cn(C5CC5)c5ncnc(N)c45)cc3Cl)cc2C(F)(F)F)CC1 [Example I-55, 1-(4-(4-amino-7-cyclopropyl-7H-pyrrolo[2,3-d]pyrimidin-5-yl)-2-chlorophenyl)-3-(4-((4-ethylpiperazin-1-yl)methyl)-3-(trifluoromethyl)phenyl)urea]
< 0.1 µM	CCN1CCC(Oc2ccc(NC(=O)Nc3ccc(-c4cn(C5CC5)c5ncnc(N)c45)cc3F)cc2C(F)(F)F)CC1 [Example I-88, 1-(4-(4-amino-7-cyclopropyl-7H-pyrrolo[2,3-d]pyrimidin-5-yl)-2-fluorophenyl)-3-(4-((1-ethylpiperidin-4-yl)oxy)-3-(trifluoromethyl)phenyl)urea]
0.1 to 0.5 µM	CN1CCN(Cc2ccc(NC(=O)Nc3ccc(-c4cn(C5CC5)c5ncnc(N)c45)cc3Cl)cc2C(F)(F)F)CC1 [Example I-35, 1-(4-(4-amino-7-cyclopropyl-7H-pyrrolo[2,3-d]pyrimidin-5-yl)-2-chlorophenyl)-3-(4-((4-methylpiperazin-1-yl)methyl)-3-(trifluoromethyl)phenyl)urea]
< 0.1 µM	CCN1CCN(Cc2ccc(NC(=O)Nc3ccc(-c4cn(C5CC5)c5ncnc(N)c45)cc3F)cc2C(F)(F)F)CC1 [Example I-41, 1-(4-(4-amino-7-cyclopropyl-7H-pyrrolo[2,3-d]pyrimidin-5-yl)-2-fluorophenyl)-3-(4-((4-ethylpiperazin-1-yl)methyl)-3-(trifluoromethyl)phenyl)urea]
0.5 to 2 µM	Nc1ncnc2c1c(-c1ccc(NC(=O)Nc3ccc(CN4CCN(S(=O)(=O)C5CC5)CC4)c(C(F)(F)F)c3)c(F)c1)cn2C1CC1 [Example I-97, 1-(4-(4-amino-7-cyclopropyl-7H-pyrrolo[2,3-d]pyrimidin-5-yl)-2-fluorophenyl)-3-(4-((4-(cyclopropylsulfonyl)piperazin-1-yl)methyl)-3-(trifluoromethyl)phenyl)urea]
0.1 to 0.5 µM	Nc1ncnc2c1c(-c1ccc(NC(=O)Nc3ccc(CN4CCN(C5COC5)CC4)c(C(F)(F)F)c3)c(F)c1)cn2C1CC1 [Example I-86, 1-(4-(4-amino-7-cyclopropyl-7H-pyrrolo[2,3-d]pyrimidin-5-yl)-2-fluorophenyl)-3-(4-((4-(oxetan-3-yl)piperazin-1-yl)methyl)-3-(trifluoromethyl)phenyl)urea]
